In patent US7745426B2, “Compositions and methods for reducing the risk of epileptic occurrence and/or for treatment of seizure disorders” (D-Pharm Ltd., priority 2003, dated 2010):
Counter-ions that a name gives are not always drawn.

Experiments:
Format in all cases: in vivo
[1] = system: epilepsy-prone (EP) subline of BALB/c mice, PTZ-induced convulsions; assay: PTZ-induced convulsive reaction in genetically epilepsy-prone (EP) mice, compounds given i.p.; conditions: for anticonvulsive effect against PTZ-induced convulsive reaction (FIG. 1): 10 mg/kg i.p. 30 minutes prior to PTZ i.p., recorded 30 min
Protocol: The animal model used is epilepsy-prone (EP) subline of mice that was selectively bred from a strain of BALB/c mice (Dolina et al. in Epilepsia (1993) 43: 33-42).
EP mice were subjected to seizure induction by intraperitoneal (i.p.) injection of pentylenetetrazol (PTZ) 50-60 mg/kg dissolved in saline. The EP animals were i.p. treated with the tested compound(s) 10 to 60 minutes prior to the PTZ injection.
The tested compounds were the following: • 1) NC-001 10 mg/kg • 2) Pyridoxine hydrochloride (=Vitamin B6) 10 mg/kg • 3) GABA 10 mg/kg • 4) Separately injected Vitamin B6 and GABA, 10 mg/kg each. A group of EP animals injected with PTZ only, with no further treatment, served as a control group.
The intensity of the PTZ-induced convulsive reaction for each group was evaluated in scores according to the following scale:
(§1) Intensity of PTZ-induced Convulsive Reaction in Scores • 1. A few myoclonic jerks (less than 10) • 2. Less than 20 jerks • 3. Less than 30 jerks • 4. 30-40 jerks/jerks and jumps/short partial convulsions. • 5. Uninterrupted jerks/series of jerks and jumps/repeated partial convulsions • 5.5 Abortive generalized convulsions • 6. Single generalized convulsive attack • 7. Series of jerks, jumps & single generalized convulsive attack; single generalized convulsions with further motor excitation • 7.5 Severe prolonged generalized convulsions • 8. Repeated generalized convulsions • 9. Series of jerks/jumps & repeated convulsions • 10. Status epilepticus • 12. Lethal convulsions
In each group of EP animals, convulsive reactions were recorded during the first 30 minutes following administration of the seizure inducer.
Genetically epilepsy-prone (EP) BALB/c mice, 3-5 animals in a group, were i.p. administered with either 5 mg/kg, 7.5 mg/kg or 10 mg/kg of NC-001 thirty minutes prior to i.p. injection of PTZ (60 mg/kg). The numbers of seizures were then recorded for each animal during 30 minutes following the PTZ injection. The intensity of convulsive reaction was scored for each of the treatment groups.

[2] = system: epilepsy-prone (EP) mice, PTZ-induced convulsions; assay: PTZ-induced convulsive reaction in EP mice, NC-001 orally administered; conditions: 30 mg/kg orally 30 min prior to PTZ 50 mg/kg i.p.; four female EP mice vs eight vehicle
Text: as §1
In order to test the ability of the vitamin B6-GABA conjugated compound to cross the GI barrier, epilepsy-prone (EP) mice were orally administered with NC-001.
A group of 12 female EP mice were i.p. treated with 50 mg/kg PTZ to induce seizures. Thirty minutes prior to PTZ administration, NC-001 at the dose of 30 mg/kg was orally administered to four of the animals (=treated group), the other eight animals were treated with vehicle only and served as a control group. All twelve animals were scored, during 30 minutes following i.p. PTZ administration, for intensity of convulsive reactions (see table of convulsive reaction scores as appear above in Example 4).

[3] = system: audiogenic sensitive rats, sound-induced convulsions; assay: Sound-induced convulsions in audiogenic sensitive rats chronically treated with PHT with or without pyridoxine; conditions: 100 db sound
Text: Phenyloin (PHT) is prescribed for medication of generalized […] generalized convulsions, complex partial seizures and simple partial seizures. […] In the experiments, intensity of 100 db sound stimulation was used. […] The second group included pyridoxine-untreated rats. […] Eleven rats were used in each group.

[4] = EP mice, 10 mg/kg i.p. 30 minutes prior to PTZ, six tested mice

**Q.** `NCCCC(=O)O` [GABA, γ-aminobutyric acid, reference compound] was tested. Which “anticonvulsive effect against PTZ-induced convulsive reaction (FIG. 1)” value ([1]; EP mice) did it give?
**A.** Its value is “did not show any anticonvulsive effect”.

**Q.** What does the source list for `Cc1ncc(COC(=O)CCCN)c(CO)c1O` [NC-001, [5-Hydroxy-6-methyl-4-(hydroxymethyl)-pyrid-3-yl]methyl-4-aminobutyrate, dihydrochloride]?
**A.** protective effect, intensity of convulsive reactions (FIG. 3) [2]: significant protective effect; EP mice that exhibited generalized convulsions ([1]; 5 mg/kg i.p. 30 min prior to PTZ 60 mg/kg i.p., FIG. 2): two of the four; effect on generalized PTZ-induced convulsions ([1]; 7.5 mg/kg i.p. 30 min prior to PTZ 60 mg/kg i.p., three EP mice, numerous jerks in all, FIG. 2): prevented generalized PTZ-induced convulsions in all three treated EP mice; effect on generalized convulsive reactions ([1]; 10 mg/kg i.p. 30 min prior to PTZ 60 mg/kg i.p., single jerks in one mouse, FIG. 2): completely prevented generalized convulsive reactions; dose dependence of anti-convulsive effect ([1]; 5, 7.5, 10 mg/kg i.p., PTZ 60 mg/kg, FIG. 2): dose-dependent anti-convulsive protective effect; anticonvulsive effect against PTZ-induced convulsive reaction (FIG. 1) ([1]; EP mice): almost a complete protection against the convulsive symptoms; animals that had only few convulsive jerks [1, 4]: two; mice that did not show any convulsive reaction [1, 4]: Four out of the six

**Q.** `O=C1NC(=O)C(c2ccccc2)(c2ccccc2)N1` [PHT, 5,5-Diphenyl-2,4-imidazolidinedione] was tested. Which “number of tests with sound-induced convulsive reactions” value ([3]; 22 tests per group, chronic PHT, days 13 and 14) did it give?
**A.** The value was 6.

**Q.** And the “tests resulting in sound-induced convulsions (percent of 22 tests)” value ([3]; PHT 75 mg/kg then 12 x 50 mg/kg once a day, tested days 13 and 14, 11 rats per group)?
**A.** The value was 27.3%.

**Q.** How did the “anticonvulsive effect against PTZ-induced convulsive reaction (FIG. 1)” value ([1]; EP mice) turn out when `Cc1ncc(CO)c(CO)c1O.Cl` [Vitamin B6, Pyridoxine hydrochloride, reference compound] was run?
**A.** The value was “some protection against PTZ-induced generalized convulsions”.
